Calls of active or inactive are those of the source.
Assays:
Assay type in all cases: functional, organism-based
Details in all cases: time 30.0 day
[1] = test system: Rattus norvegicus; test: Cardioprotective activity in Sprague-Dawley rat model of LAD coronary artery ligation-induced cardiac fibrosis assessed as decrease in collagen volume fraction at 2.86 mg/kg, po administered via gavage for 30 days by Masson trichrome staining based microscopic method
[2] = test system: Rattus norvegicus; test: Cardioprotective activity in Sprague-Dawley rat model of LAD coronary artery ligation-induced cardiac fibrosis assessed as decrease in collagen in heart at 2.86 mg/kg, po administered via gavage for 30 days by Masson trichrome staining based microscopic method
[3] = test system: Rattus norvegicus; test: Cardioprotective activity in Sprague-Dawley rat model of LAD coronary artery ligation-induced cardiac fibrosis assessed as reduction in infarct survival area of myocardial cells at 2.86 mg/kg, po administered via gavage for 30 days by H and E staining based optical microscopic method
[4] = test system: Rattus norvegicus; test: Cardioprotective activity in Sprague-Dawley rat model of LAD coronary artery ligation-induced cardiac fibrosis assessed as increase in fractional shortening at 2.86 mg/kg, po administered via gavage for 30 days by echocardiography
[5] = test system: Rattus norvegicus; test: Cardioprotective activity in Sprague-Dawley rat model of LAD coronary artery ligation-induced cardiac fibrosis assessed as increase in organized myocardial cells at 2.86 mg/kg, po administered via gavage for 30 days by H and E staining based optical microscopic method
[6] = test system: Rattus norvegicus; test: Cardioprotective activity in Sprague-Dawley rat model of LAD coronary artery ligation-induced cardiac fibrosis assessed as decrease in myocardial necrotic area at 2.86 mg/kg, po administered via gavage for 30 days
[7] = test system: Rattus norvegicus; test: Cardioprotective activity in Sprague-Dawley rat model of LAD coronary artery ligation-induced cardiac fibrosis assessed as decrease in heart weight ratio at 2.86 mg/kg, po administered via gavage for 30 days
[8] = test system: Rattus norvegicus; test: Cardioprotective activity in Sprague-Dawley rat model of LAD coronary artery ligation-induced cardiac fibrosis assessed as increase in ejection fraction at 2.86 mg/kg, po administered via gavage for 30 days by echocardiography
[9] = test system: Rattus norvegicus; test: Cardioprotective activity in Sprague-Dawley rat model of LAD coronary artery ligation-induced cardiac fibrosis assessed as increase in left ventricular function by measuring reduction in LAD-induced anterior wall weakened at 2.86 mg/kg, po administered via gavage for 30 days by echocardiography
[10] = test system: Rattus norvegicus; test: Cardioprotective activity in Sprague-Dawley rat model of LAD coronary artery ligation-induced cardiac fibrosis assessed as decrease in heart weight ratio at 10 mg/kg, po administered via gavage for 30 days
[11] = test system: Rattus norvegicus; test: Cardioprotective activity in Sprague-Dawley rat model of LAD coronary artery ligation-induced cardiac fibrosis assessed as reduction in infarct survival area of myocardial cells at 10 mg/kg, po administered via gavage for 30 days by H and E staining based optical microscopic method
[12] = test system: Rattus norvegicus; test: Cardioprotective activity in Sprague-Dawley rat model of LAD coronary artery ligation-induced cardiac fibrosis assessed as decrease in Lox mRNA expression at 10 mg/kg, po administered via gavage for 30 days by RT2 Profiler PCR Array
[13] = test system: Rattus norvegicus; test: Cardioprotective activity in Sprague-Dawley rat model of LAD coronary artery ligation-induced cardiac fibrosis assessed as decrease in collagen volume fraction at 10 mg/kg, po administered via gavage for 30 days by Masson trichrome staining based microscopic method
[14] = test system: Rattus norvegicus; test: Cardioprotective activity in Sprague-Dawley rat model of LAD coronary artery ligation-induced cardiac fibrosis assessed as increase in left ventricular function by measuring reduction in LAD-induced anterior wall weakened at 10 mg/kg, po administered via gavage for 30 days by echocardiography
[15] = test system: Rattus norvegicus; test: Cardioprotective activity in Sprague-Dawley rat model of LAD coronary artery ligation-induced cardiac fibrosis assessed as decrease in myocardial necrotic area at 10 mg/kg, po administered via gavage for 30 days
[16] = test system: Rattus norvegicus; test: Cardioprotective activity in Sprague-Dawley rat model of LAD coronary artery ligation-induced cardiac fibrosis assessed as increase in fractional shortening at 10 mg/kg, po administered via gavage for 30 days by echocardiography
[17] = test system: Rattus norvegicus; test: Cardioprotective activity in Sprague-Dawley rat model of LAD coronary artery ligation-induced cardiac fibrosis assessed as decrease in collagen in heart at 10 mg/kg, po administered via gavage for 30 days by Masson trichrome staining based microscopic method
[18] = test system: Rattus norvegicus; test: Cardioprotective activity in Sprague-Dawley rat model of LAD coronary artery ligation-induced cardiac fibrosis assessed as increase in organized myocardial cells at 10 mg/kg, po administered via gavage for 30 days by H and E staining based optical microscopic method
[19] = test system: Rattus norvegicus; test: Cardioprotective activity in Sprague-Dawley rat model of LAD coronary artery ligation-induced cardiac fibrosis assessed as decrease in Col3a1 mRNA expression at 10 mg/kg, po administered via gavage for 30 days by RT2 Profiler PCR Array
[20] = test system: Rattus norvegicus; test: Cardioprotective activity in Sprague-Dawley rat model of LAD coronary artery ligation-induced cardiac fibrosis assessed as decrease in CTGF mRNA expression at 10 mg/kg, po administered via gavage for 30 days by RT2 Profiler PCR Array
[21] = test system: Rattus norvegicus; test: Cardioprotective activity in Sprague-Dawley rat model of LAD coronary artery ligation-induced cardiac fibrosis assessed as increase in ejection fraction at 10 mg/kg, po administered via gavage for 30 days by echocardiography

Measured: Activity

CCOC(=O)[C@H](CCc1ccccc1)N[C@@H](C)C(=O)N1CCC[C@H]1C(=O)O
active: [1] | [2] | [3] | [4] | [5] | [6] | [7] | [8] | [9]

COc1cc2c(c(OC)c1OC)-c1c(cc3c(c1OC)OCO3)C[C@H](C)[C@](C)(O)[C@H]2OC(=O)c1ccccc1
active: [10] | [11] | [12] | [13] | [14] | [15] | [16] | [17] | [18] | [19] | [20] | [21]

— ChEMBL document CHEMBL4699536, “Discovery of Natural Compounds for Cardiac Fibrosis by a Transcriptome-Based Functional Gene Module Reference Approach” (J Nat Prod, 2020)
